Assay results published in patent US20250059179A1, “Heterocyclic Compounds and Methods of Use” (AMGEN INC., priority 2021, published 2025).
Read-outs that look alike come from different tables or passages of the source.

Experiments:
[1] = target: GDP-bound KRAS protein (aa 1-169), containing both G12D and C118A amino acid substitutions (Homo sapiens, UniProt P01116, C118A/G12D); experiment: KRAS G12D Coupled Nucleotide Exchange Assay; format: biochemical; conditions: 2 h compound pre-incubation; SOS-mediated nucleotide exchange, cRAF AlphaScreen readout;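 further: IC50 obtained by fitting the AlphaScreen signal with a four-parameter logistic curve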
[2] = target: His-tagged KRAS G12D protein (Homo sapiens, UniProt P01116, G12D); experiment: KRAS G12D TR-FRET Assay; format: binding; conditions: biotinylated KRPep-2d substrate, 10 μM GDP;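 further: europium anti-His antibody paired with streptavidin-d2 as FRET partners, initial 30 min incubation, then peptide 1 h and detection reagents 1 h, all at room temperature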
[3] = test system: Phosphorylation of ERK1/2 in A-427 cells; experiment: Phospho-ERK1/2 MSD Assay; format: cell-based; conditions: 2 h compound treatment, read-out: pERK (A427 cells) IC50
Experimental: A-427 (ATCC® HTB-53™) cells were cultured in RPMI 1640 Medium (ThermoFisher Scientific 11875093) containing 10% fetal bovine serum (ThermoFisher Scientific 16000044) and 1× penicillin-streptomycin-glutamine (ThermoFisher Scientific 10378016). Sixteen hours prior to compound treatment, A-427 cells were seeded in 96-well cell culture plates at a density of 25,000 cells/well and incubated at 37° C., 5% CO2. A compound dose-response titration was diluted in growth media, added to appropriate wells of a cell culture plate, and then incubated at 37° C., 5% CO2 for 2 h. Following compound treatment, cells were washed with ice-cold Dulbecco's phosphate-buffered saline, no Ca^2+ or Mg^2+ (ThermoFisher Scientific 14190144), and then lysed in RIPA buffer (50 mM Tris-HCl pH 7.5, 1% Igepal, 0.5% sodium deoxycholate, 150 mM NaCl, and 0.5% sodium dodecyl sulfate) containing protease inhibitors (Roche 4693132001) and phosphatase inhibitors (Roche 4906837001). Phosphorylation of ERK1/2 in compound-treated lysates was assayed using Phospho-ERK1/2 Whole Cell Lysate kits (Meso Scale Discovery K151DWD) according to the manufacturer's protocol. Assay plates were read on a Meso Scale Discovery Sector Imager 6000, and data were analyzed using a 4-parameter logistic model to calculate IC50 values.

Sequence of GDP-bound KRAS protein (aa 1-169), containing both G12D and C118A amino acid substitutions (P01116 1-169 isoform P01116-2 G12D/C118A): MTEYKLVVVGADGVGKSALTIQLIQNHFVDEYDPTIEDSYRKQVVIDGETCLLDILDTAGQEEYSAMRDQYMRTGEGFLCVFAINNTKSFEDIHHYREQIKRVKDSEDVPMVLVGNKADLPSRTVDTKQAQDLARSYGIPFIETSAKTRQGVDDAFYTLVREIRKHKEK
Sequence of His-tagged KRAS G12D protein (P01116 1-188 isoform P01116-2 G12D): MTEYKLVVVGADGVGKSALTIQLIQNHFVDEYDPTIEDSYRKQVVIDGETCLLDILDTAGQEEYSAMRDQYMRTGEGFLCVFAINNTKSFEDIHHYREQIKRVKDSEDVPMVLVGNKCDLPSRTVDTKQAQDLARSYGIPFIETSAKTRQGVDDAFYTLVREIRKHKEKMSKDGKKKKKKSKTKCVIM

Row | Structure (SMILES) | Avg 2 h Coupled Exchange IC50 [1] | IC50 [2] | IC50 ([3]; Homo sapiens, A-427, 2 h) | IC50 [3]
1 | Nc1nc2c(-c3c(Cl)cc4c(N5CC6CNCC5C6)nc(OC[C@@]56CCCN5C[C@H](F)C6)nc4c3F)ccc(F)c2s1 (single isomer, unassigned) [Example 29] | 13 nM | 107 nM | 4730 nM | 
2 | Nc1nc2c(-c3c(Cl)cc4c(N5CC6CNCC5C6)nc(OC[C@@]56CCCN5C[C@H](F)C6)nc4c3F)ccc(F)c2s1 (single isomer, unassigned) [Example 30] | 15 nM | 96 nM |  | 7910 nM
3 | Nc1nc2c(-c3c(Cl)cc4c(N5C6CCNCC5CC6)nc(OC[C@@]56CCCN5C[C@H](F)C6)nc4c3F)ccc(F)c2s1 (single isomer, unassigned) [Example 32] | 16 nM | 54 nM |  | 164 nM
4 | Nc1nc2c(-c3c(Cl)cc4c(N5C6CCNCC5CC6)nc(OC[C@@]56CCCN5C[C@H](F)C6)nc4c3F)ccc(F)c2s1 (single isomer, unassigned) [Example 33] | 10 nM | 63 nM |  | 879 nM
5 | Nc1nc2c(-c3c(Cl)cc4c(N5[C@@H]6CC[C@H]5CNC6)nc(OC[C@@]56CCCN5C[C@H](F)C6)nc4c3F)ccc(F)c2s1 [Example 2, 4-(4-((1R,5S)-3,8-diazabicyclo[3.2.1]octan-8-yl)-6-chloro-8-fluoro-2-(((2R,7aS)-2-fluorotetrahydro-1H-pyrrolizin-7a(5H)-yl)methoxy)quinazolin-7-yl)-7-fluorobenzo[d] thiazol-2-amine] | 4 nM | 5 nM | 23 nM | 
6 | CN1C[C@H](F)C[C@H]1COc1nc(N2[C@@H]3CC[C@H]2CNC3)c2cc(Cl)c(-c3ccc(F)c4sc(N)nc34)c(F)c2n1 [Example 3, 4-(4-((1R,5S)-3,8-diazabicyclo[3.2.1]octan-8-yl)-6-chloro-8-fluoro-2-(((2S,4R)-4-fluoro-1-methylpyrrolidin-2-yl)methoxy)quinazolin-7-yl)-7-fluorobenzo[d] thiazol-2-amine] | 5 nM | 6 nM | 194 nM | 
7 | Nc1nc2c(-c3c(Cl)cc4c(N5CCCNC(=O)C5)nc(OC[C@@]56CCCN5C[C@H](F)C6)nc4c3F)ccc(F)c2s1 [Example 4, 4-(7-(2-amino-7-fluorobenzo[d]thiazol-4-yl)-6-chloro-8-fluoro-2-(((2R,7aS)-2-fluorotetrahydro-1H-pyrrolizin-7a(5H)-yl)methoxy)quinazolin-4-yl)-1,4-diazepan-2-one] | 5 nM | 10 nM | 4900 nM | 
8 | CN1CCC[C@H]1COc1nc(N2CC3CC(C2)N3)c2cc(Cl)c(-c3cccc4sc(N)nc34)c(F)c2n1 [Example 5, 4-(4-(3,6-diazabicyclo[3.1.1]heptan-3-yl)-6-chloro-8-fluoro-2-(((S)-1-methylpyrrolidin-2-yl)methoxy)quinazolin-7-yl)benzo[d]thiazol-2-amine] | 5 nM | 10 nM | 2630 nM | 
9 | Nc1nc2c(-c3c(Cl)cc4c(N5C[C@H]6C[C@@H](C5)N6)nc(OC[C@@]56CCCN5C[C@H](F)C6)nc4c3F)ccc(F)c2s1 [Example 6, 4-(4-((1R,5S)-3,6-diazabicyclo[3.1.1]heptan-3-yl)-6-chloro-8-fluoro-2-(((2R,7aS)-2-fluorotetrahydro-1H-pyrrolizin-7a(5H)-yl)methoxy)quinazolin-7-yl)-7-fluorobenzo[d] thiazol-2-amine] | 5 nM | 5 nM | 364 nM | 
10 | CN1C[C@H](F)C[C@H]1COc1nc(N2C[C@H]3C[C@@H](C2)N3)c2cc(Cl)c(-c3ccc(F)c4sc(N)nc34)c(F)c2n1 [Example 7, 4-(4-((1R,5S)-3,6-diazabicyclo[3.1.1]heptan-3-yl)-6-chloro-8-fluoro-2-(((2S,4R)-4-fluoro-1-methylpyrrolidin-2-yl)methoxy)quinazolin-7-yl)-7-fluorobenzo[d] thiazol-2-amine] | 6 nM | 12 nM | 531 nM | 
11 | Nc1nc2c(-c3c(Cl)cc4c(N5[C@@H]6CC[C@H]5CNC6)nc(OCC56CCCN5CC(F)(F)C6)nc4c3F)ccc(F)c2s1 (stereo partly drawn) [Example 9, 4-(4-((1R,5S)-3,8-diazabicyclo[3.2.1]octan-8-yl)-6-chloro-2-((2,2-difluorotetrahydro-1H-pyrrolizin-7a(5H)-yl)methoxy)-8-fluoroquinazolin-7-yl)-7-fluorobenzo[d] thiazol-2-amine] | 9 nM | 7 nM | 403 nM | 
12 | CN1CCC[C@H]1CCOc1nc(N2C[C@H]3C[C@@H](C2)N3)c2cc(Cl)c(-c3ccc(F)c4sc(N)nc34)c(F)c2n1 [Example 11, 4-(4-((1R,5S)-3,6-diazabicyclo[3.1.1]heptan-3-yl)-6-chloro-8-fluoro-2-(2-((S)-1-methylpyrrolidin-2-yl)ethoxy)quinazolin-7-yl)-7-fluorobenzo[d] thiazol-2-amine] | 11 nM | 29 nM | 8250 nM | 
13 | Nc1nc2c(-c3c(Cl)cc4c(N5C[C@H]6C[C@@H](C5)N6)nc(OCC56CCCN5CC(F)(F)C6)nc4c3F)ccc(F)c2s1 (stereo partly drawn) [Example 14, 4-(4-((1R,5S)-3,6-diazabicyclo[3.1.1]heptan-3-yl)-6-chloro-2-((2,2-difluorotetrahydro-1H-pyrrolizin-7a(5H)-yl)methoxy)-8-fluoroquinazolin-7-yl)-7-fluorobenzo[d] thiazol-2-amine] | 14 nM | 12 nM | 1500 nM | 
14 | CN1CCC[C@H]1COc1nc(N2C[C@@H]3CC[C@H]2CN3)c2cc(Cl)c(-c3cccc4sc(N)nc34)c(F)c2n1 [Example 15, 4-(4-((15,4S)-2,5-diazabicyclo[2.2.2]octan-2-yl)-6-chloro-8-fluoro-2-(((S)-1-methylpyrrolidin-2-yl)methoxy)quinazolin-7-yl)benzo[d]thiazol-2-amine] | 14 nM | 21 nM | 2300 nM | 
15 | C[C@H]1CNCCN1c1nc(OC[C@@H]2CCCN2C)nc2c(F)c(-c3cccc4sc(N)nc34)c(Cl)cc12 [Example 16, 4-(6-chloro-8-fluoro-4-((S)-2-methylpiperazin-1-yl)-2-(((S)-1-methylpyrrolidin-2-yl)methoxy)quinazolin-7-yl)benzo[d]thiazol-2-amine] | 23 nM | 100 nM | 4220 nM | 
16 | CN1CCC[C@H]1COc1nc(N2C3CNCC2C3)c2cc(Cl)c(-c3cccc4sc(N)nc34)c(F)c2n1 [Example 18, 4-(4-(3,6-diazabicyclo[3.1.1]heptan-6-yl)-6-chloro-8-fluoro-2-(((S)-1-methylpyrrolidin-2-yl)methoxy)quinazolin-7-yl)benzo[d]thiazol-2-amine] | 49 nM | 158 nM | > 25000 nM | 
17 | CN1CCC[C@H]1COc1nc(N2CCNC3CC32)c2cc(Cl)c(-c3cccc4sc(N)nc34)c(F)c2n1 (stereo partly drawn) [Example 20, 4-(4-(2,5-diazabicyclo[4.1.0]heptan-2-yl)-6-chloro-8-fluoro-2-(((S)-1-methylpyrrolidin-2-yl)methoxy)quinazolin-7-yl)benzo[d]thiazol-2-amine] | 63 nM | 168 nM | 2510 nM | 
18 | Nc1nc2c(-c3c(Cl)cc4c(N5CCCNCC5)nc(OC[C@@]56CCCN5C[C@H](F)C6)nc4c3F)ccc(F)c2s1 [Example 28, 4-(6-chloro-4-(1,4-diazepan-1-yl)-8-fluoro-2-(((2R,7aS)-2-fluorotetrahydro-1H-pyrrolizin-7a(5H)-yl)methoxy)quinazolin-7-yl)-7-fluorobenzo[d] thiazol-2-amine] | 3 nM | 8 nM | 2300 nM | 
19 | Nc1nc2c(-c3c(Cl)cc4c(N5CC6CCC(C5)NC6)nc(OC[C@@]56CCCN5C[C@H](F)C6)nc4c3F)ccc(F)c2s1 (stereo partly drawn) [Example 31, 4-(4-(3,6-diazabicyclo[3.2.2]nonan-3-yl)-6-chloro-8-fluoro-2-(((2R,7aS)-2-fluorotetrahydro-1H-pyrrolizin-7a(5H)-yl)methoxy)quinazolin-7-yl)-7-fluorobenzo[d] thiazol-2-amine] | 5 nM | 6 nM | 1020 nM | 
20 | Nc1nc2c(-c3c(Cl)cc4c(N5CCNCC5)nc(OC[C@]56CCCN5C[C@H](F)C6)nc4c3F)cccc2s1 [Example 46, 4-(6-chloro-8-fluoro-2-(((2R,7aR)-2-fluorotetra-hydro-1H-pyrrolizin-7a(5H)-yl)methoxy)-4-(piperazin-1-yl)quinazolin-7-yl)benzo[d] thiazol-2-amine] |  |  | 3950 nM | 
